# Source: US20200069691A1, “HETEROCYCLIC COMPOUNDS AS HIV PROTEASE INHIBITORS” (Merck Sharp & Dohme Corp., priority 2016, published 2020)
# Molecular target: T1, wild-type HIV-1 protease (Human immunodeficiency virus type 1 group M subtype B, UniProt P04585)
# T1 construct: Escherichia coli expressed wild-type HIV-1 protease protein
# Assay: Assay for Inhibition of Microbial Expressed HIV Protease (peptide substrate cleavage, LC-MS/MS readout)
# Format: biochemical
# Conditions: E. coli expressed wild-type HIV-1 protease, mean of at least two independent experiments, read-out: HIV Pr Enzyme HIV1 PR IC50
# Procedure, shortened: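 E. coli-expressed wild-type HIV-1 protease ([…]) was preincubated with inhibitor 30 min at room temperature in pH 5.5 acetate buffer (100 mM NaCl, 0.1% BSA). Then 400 μM octapeptide substrate was added and reacted 1 h at 30 °C; inhibition came from LC-MS/MS product peak areas, mean of ≥2 experiments.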
row,SMILES,IC50 [nM]
1,"N=C1NC(c2ccccc2)(c2ccccc2)C(=O)N1Cc1cccc(C(=O)N2CCN(c3ccccc3Cl)CC2)c1 [Compound 238, 3-(3-{[4-(2-chlorophenyl)piperazin-1-yl]carbonyl}benzyl)-2-imino-5,5-diphenylimidazolidin-4-one]",15
2,"CC(=O)N1CCN(C(=O)c2cc(CN3C(=N)N[C@](CCCC(F)(F)F)(c4ccc(F)cc4)C3=O)ccc2C(F)(F)F)CC1 [Compound 109, (5R)-3-{3-[(4-acetylpiperazin-1-yl)carbonyl]-4-(trifluoromethyl)-benzyl}-5-(4-fluorophenyl)-2-imino-5-(4,4,4-trifluorobutyl)-imidazolidin-4-one]",26.5
3,"CC(C)CC1(c2ccccc2)NC(=N)N(Cc2cccc(C(=O)N3Cc4cccnc4C3)c2)C1=O (stereo not drawn) [Compound 259, 3-[3-(5,7-dihydro-6H-pyrrolo[3,4-b]pyridin-6-ylcarbonyl)benzyl]-2-imino-5-(2-methylpropyl)-5-phenylimidazolidin-4-one]",22.6
4,"N=C1N[C@](CCCC(F)(F)F)(c2ccc(F)cc2)C(=O)N1Cc1ccc(C(F)(F)F)c(C(=O)N2Cc3cnc(-c4ccsc4)nc3C2)c1 [Compound 63, (5R)-5-(4-fluorophenyl)-2-imino-3-{3-[(2-thiophen-3-yl-5,7-dihydro-6H-pyrrolo[3,4-d]pyrimidin-6-yl)carbonyl]-4-(trifluoromethyl)-benzyl}-5-(4,4,4-trifluorobutyl)-imidazolidin-4-one]",6.94
5,"CC(C)CC[C@]1(c2ccc(F)cc2)NC(=N)N(C(Cc2ccccc2)c2ccc(C(F)(F)F)c(C(=O)N3Cc4nccnc4C3)c2)C1=O (stereo partly drawn) [Compound 6, (5R)-3-{1-[3-(5,7-dihydro-6H-pyrrolo[3,4-b]pyrazin-6-ylcarbonyl)-4-(trifluoromethyl)-phenyl]-2-phenylethyl}-5-(4-fluorophenyl)-2-imino-5-(3-methylbutyl)imidazolidin-4-one]",0.26
6,CC(C)CCC1(c2ccc(F)cc2)NC(=N)N(Cc2ccc(C(F)(F)F)c(C(=O)N3C[C@@H]4ON=C(Nc5ccccc5)[C@@H]4C3)c2)C1=O (stereo partly drawn) [Compound 175],59.7
7,"N=C1N[C@](CCCC(F)(F)F)(c2ccc(F)cc2)C(=O)N1Cc1ccc(C(F)(F)F)c(C(=O)N2Cc3cnc(-c4ccncc4)nc3C2)c1 [Compound 53, (5R)-5-(4-fluorophenyl)-2-imino-3-{3-[(2-pyridin-4-yl-5,7-dihydro-6H-pyrrolo[3,4-d]pyrimidin-6-yl)carbonyl]-4-(trifluoromethyl)-benzyl}-5-(4,4,4-trifluorobutyl)-imidazolidin-4-one]",5.63
8,"Cc1nc2c([nH]1)CN(C(=O)c1cccc(CN3C(=N)NC(CC(C)C)(c4ccccc4)C3=O)c1)C2 (stereo not drawn) [Compound 274, 2-imino-3-{3-[(2-methyl-4,6-dihydropyrrolo[3,4-d]imidazol-5(1H)-yl)carbonyl]benzyl}-5-(2-methylpropyl)-5-phenylimidazolidin-4-one]",28.8
9,"N=C1NC(c2ccccc2)(c2ccccc2)C(=O)N1Cc1cccc(C(=O)N2CCc3ccc(F)cc3C2)c1 [Compound 269, 3-{3-[(7-fluoro-3,4-dihydroisoquinolin-2(1H)-yl)carbonyl]benzyl}-2-imino-5,5-diphenylimidazolidin-4-one]",26.9
10,"N=C1NC(c2ccccc2)(c2ccccc2)C(=O)N1Cc1cc(F)cc(C(=O)N2Cc3ccccc3C2)c1 [Compound 296, 3-[3-(1,3-dihydro-2H-isoindol-2-ylcarbonyl)-5-fluorobenzyl]-2-imino-5,5-diphenylimidazolidin-4-one]",40.3
11,"CCCn1cc(-c2ncc3c(n2)CN(C(=O)c2cc(CN4C(=N)N[C@](CCCC(F)(F)F)(c5ccc(F)cc5)C4=O)ccc2C(F)(F)F)C3)cn1 [Compound 18, (5R)-5-(4-fluorophenyl)-2-imino-3-[3-{[2-(1-propyl-1H-pyrazol-4-yl)-5,7-dihydro-6H-pyrrolo[3,4-d]pyrimidin-6-yl]carbonyl}-4-(trifluoromethyl)benzyl]-5-(4,4,4-trifluorobutyl)imidazolidin-4-one]",2
12,"COC(=O)N1CCN(C(=O)c2cccc(CN3C(=N)NC(CCC(C)C)(c4cccc(-c5cccnc5)c4)C3=O)c2)CC1 (stereo not drawn) [Compound 354, methyl 4-[(3-{[2-imino-4-(3-methylbutyl)-5-oxo-4-(3-pyridin-3-ylphenyl)imidazolidin-1-yl]methyl}phenyl)carbonyl] piperazine-1-carboxylate]",89.1
13,"CNC(=O)N1CCN(C(=O)c2cc(CN3C(=N)N[C@](CCCC(F)(F)F)(c4ccc(F)cc4)C3=O)ccc2C(F)(F)F)CC1 [Compound 115, 4-{[5-{[(4R)-4-(4-fluorophenyl)-2-imino-5-oxo-4-(4,4,4-trifluoro-butyl)imidazolidin-1-yl]methyl}-2-(trifluoromethyl)phenyl]carbonyl}-N-methylpiperazine-1-carboxamide]",36.5
14,"CC(=O)N1CCN(C(=O)c2cc(F)cc(CN3C(=N)NC(c4ccccc4)(c4ccccc4)C3=O)c2)CC1 [Compound 323, 3-{3-[(4-acetylpiperazin-1-yl)carbonyl]-5-fluorobenzyl}-2-imino-5,5-diphenylimidazolidin-4-one]",57
15,"CN(C)c1ncnc2c1CN(C(=O)c1cccc(CN3C(=N)NC(c4ccc(F)cc4)(c4ccc(F)cc4)C3=O)c1)C2 [Compound 220, 3-(3-{[4-(dimethylamino)-5,7-dihydro-6H-pyrrolo[3,4-d]pyrimidin-6-yl]carbonyl}benzyl)-5,5-bis(4-fluorophenyl)-2-iminoimidazolidin-4-one]",11
16,"C[S+]([O-])c1cccc(-c2ncc3c(n2)CN(C(=O)c2cc(CN4C(=N)N[C@](CCCC(F)(F)F)(c5ccc(F)cc5)C4=O)ccc2C(F)(F)F)C3)c1 (stereo partly drawn) [Compound 21, (5R)-5-(4-fluorophenyl)-2-imino-3-[3-({2-[3-(methylsulfmyl)phenyl]-5,7-dihydro-6H-pyrrolo[3,4-d]pyrimidin-6-yl}carbonyl)-4-(trifluoromethyl)benzyl]-5-(4,4,4-trifluorobutyl)imidazolidin-4-one]",2.31
17,"CCOC(=O)NC1CCN(C(=O)c2cccc(CN3C(=N)NC(c4ccccc4)(c4ccccc4)C3=O)c2)CC1 [Compound 355, ethyl [1-({3-[(2-imino-5-oxo-4,4-diphenylimidazolidin-1-yl)methyl]phenyl}carbonyl)piperidin-4-yl]carbamate]",89.8
18,"Cn1ccc2c(-c3ncc4c(n3)CN(C(=O)c3cc(CN5C(=N)N[C@](CCCC(F)(F)F)(c6ccc(F)cc6)C5=O)ccc3C(F)(F)F)C4)cccc21 [Compound 41, (5R)-5-(4-fluorophenyl)-2-imino-3-[3-{[2-(1-methyl-1H-indol-4-yl)-5,7-dihydro-6H-pyrrolo[3,4-d]pyrimidin-6-yl]carbonyl}-4-(trifluoromethyl)benzyl]-5-(4,4,4-trifluorobutyl)imidazolidin-4-one]",4.23
19,"CCOC(=O)NC1CCN(C(=O)c2cc(F)cc(CN3C(=N)NC(c4ccccc4)(c4ccccc4)C3=O)c2)CC1 [Compound 344, ethyl [1-({3-fluoro-5-[(2-imino-5-oxo-4,4-diphenylimidazolidin-1-yl)methyl]phenyl}carbonyl)piperidin-4-yl]carbamate]",81.4
20,"C[C@H](c1cccc(C(=O)N2Cc3nccnc3C2)c1)N1C(=N)NC(c2ccccc2)(c2ccccc2)C1=O [Compound 185, 3-{(1R)-1-[3-(5,7-dihydro-6H-pyrrolo[3,4-b]pyrazin-6-ylcarbonyl)phenyl]ethyl}-2-imino-5,5-diphenylimidazolidin-4-one]",40.5
21,"CN1CCN(C(=O)c2cc(CN3C(=N)NC(c4ccccc4)(c4ccccc4)C3=O)ccc2C(F)(F)F)CC1=O [Compound 153, 4-({5-[(2-imino-5-oxo-4,4-diphenylimidazolidin-1-yl)methyl]-2-(trifluoromethyl)phenyl}-carbonyl)-1-methylpiperazin-2-one]",10.1
22,"CN1CCN(C(=O)c2cccc(CN3C(=N)NC(c4ccccc4)(c4ccccc4)C3=O)c2)CC1=O [Compound 358, 4-({3-[(2-imino-5-oxo-4,4-diphenylimidazolidin-1-yl)methyl]phenyl}carbonyl)-1-methylpiperazin-2-one]",93.6
23,"Cc1nc2c(s1)CN(C(=O)c1cccc(CN3C(=N)NC(c4ccccc4)(c4ccccc4)C3=O)c1)C2 [Compound 206, 5-({3-[(2-imino-5-oxo-4,4-diphenylimidazolidin-1-yl)methyl]phenyl}carbonyl)-2-methyl-3,4,5,6-tetrahydropyrrolo[3,4-d][1,3]thiazol-1-ium]",8.2
24,"CN(C)C(=O)c1cccc(C2(c3ccc(F)cc3)NC(=N)N(Cc3cccc(C(=O)N4Cc5ccccc5C4)c3)C2=O)c1 (stereo not drawn) [Compound 306, 3-{1-[3-(1,3-dihydro-2H-isoindol-2-ylcarbonyl)benzyl]-4-(4-fluorophenyl)-2-imino-5-oxoimidazolidin-4-yl}-N,N-dimethylbenzamide]",47.4
25,"N=C1NC(c2ccccc2)(c2ccccc2)C(=O)N1Cc1cc(C(=O)N2Cc3nccnc3C2)ccn1 [Compound 399, 3-{[4-(5,7-dihydro-6H-pyrrolo[3,4-b]pyrazin-6-ylcarbonyl)pyridin-2-yl]methyl}-2-imino-5,5-diphenylimidazolidin-4-one]",20.4
26,"Cc1nonc1N1CCN(C(=O)c2cc(CN3C(=N)N[C@](CCCC(F)(F)F)(c4ccc(F)cc4)C3=O)ccc2C(F)(F)F)CC1 [Compound 84, (5R)-5-(4-fluorophenyl)-2-imino-3-[3-{[4-(4-methyl-1,2,5-oxadiazol-3-yl)piperazin-1-yl]carbonyl}-4-(trifluoromethyl)benzyl]-5-(4,4,4-trifluorobutyl)imidazolidin-4-one]",14.1
27,"N=C1N[C@](CCC2CC2)(c2ccc(F)cc2)C(=O)N1[C@@H]1CCCCc2ccc(C(=O)N3Cc4nccnc4C3)cc21 [Compound 93, (5R)-5-(2-cyclopropylethyl)-3-[(5R)-3-(5,7-dihydro-6H-pyrrolo-[3,4-b]pyrazin-6-ylcarbonyl)-6,7,8,9-tetrahydro-5H-benzo-[7]annulen-5-yl]-5-(4-fluoro-phenyl)-2-iminoimidazolidin-4-one]",18.5
